Test results as given in patent US9452986B2, “6-heteroaryloxy- or 6-aryloxy-quinoline-2-carboxamides and method of use” (AbbVie Inc., priority 2014, dated 2016).
Like-named read-outs stand apart in the source and are kept apart here.

Target: recombinant human Nav1.7 (Homo sapiens (Human), UniProt Q15858)
Assay: FRET-based membrane potential assay, recombinant human sodium channel Nav1.7
Assay type: cell-based
Details: read-out: FRET-Membrane Potential Nav1.7 IC50
How it was run: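 Channel activation used veratridine at its EC80, set by a dilution curve each experiment, together with Leiurus scorpion venom, added 3 min after compound. Membrane-potential ratio signals from FLIPR Tetra in HEPES-buffered HBSS were fitted to a four-parameter Hill equation for percent inhibition and IC50.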

[1] = HEK293 cells stably expressing recombinant human Nav1.7, veratridine + scorpion venom depolarization

Sequence of recombinant human Nav1.7 (Q15858 whole entry): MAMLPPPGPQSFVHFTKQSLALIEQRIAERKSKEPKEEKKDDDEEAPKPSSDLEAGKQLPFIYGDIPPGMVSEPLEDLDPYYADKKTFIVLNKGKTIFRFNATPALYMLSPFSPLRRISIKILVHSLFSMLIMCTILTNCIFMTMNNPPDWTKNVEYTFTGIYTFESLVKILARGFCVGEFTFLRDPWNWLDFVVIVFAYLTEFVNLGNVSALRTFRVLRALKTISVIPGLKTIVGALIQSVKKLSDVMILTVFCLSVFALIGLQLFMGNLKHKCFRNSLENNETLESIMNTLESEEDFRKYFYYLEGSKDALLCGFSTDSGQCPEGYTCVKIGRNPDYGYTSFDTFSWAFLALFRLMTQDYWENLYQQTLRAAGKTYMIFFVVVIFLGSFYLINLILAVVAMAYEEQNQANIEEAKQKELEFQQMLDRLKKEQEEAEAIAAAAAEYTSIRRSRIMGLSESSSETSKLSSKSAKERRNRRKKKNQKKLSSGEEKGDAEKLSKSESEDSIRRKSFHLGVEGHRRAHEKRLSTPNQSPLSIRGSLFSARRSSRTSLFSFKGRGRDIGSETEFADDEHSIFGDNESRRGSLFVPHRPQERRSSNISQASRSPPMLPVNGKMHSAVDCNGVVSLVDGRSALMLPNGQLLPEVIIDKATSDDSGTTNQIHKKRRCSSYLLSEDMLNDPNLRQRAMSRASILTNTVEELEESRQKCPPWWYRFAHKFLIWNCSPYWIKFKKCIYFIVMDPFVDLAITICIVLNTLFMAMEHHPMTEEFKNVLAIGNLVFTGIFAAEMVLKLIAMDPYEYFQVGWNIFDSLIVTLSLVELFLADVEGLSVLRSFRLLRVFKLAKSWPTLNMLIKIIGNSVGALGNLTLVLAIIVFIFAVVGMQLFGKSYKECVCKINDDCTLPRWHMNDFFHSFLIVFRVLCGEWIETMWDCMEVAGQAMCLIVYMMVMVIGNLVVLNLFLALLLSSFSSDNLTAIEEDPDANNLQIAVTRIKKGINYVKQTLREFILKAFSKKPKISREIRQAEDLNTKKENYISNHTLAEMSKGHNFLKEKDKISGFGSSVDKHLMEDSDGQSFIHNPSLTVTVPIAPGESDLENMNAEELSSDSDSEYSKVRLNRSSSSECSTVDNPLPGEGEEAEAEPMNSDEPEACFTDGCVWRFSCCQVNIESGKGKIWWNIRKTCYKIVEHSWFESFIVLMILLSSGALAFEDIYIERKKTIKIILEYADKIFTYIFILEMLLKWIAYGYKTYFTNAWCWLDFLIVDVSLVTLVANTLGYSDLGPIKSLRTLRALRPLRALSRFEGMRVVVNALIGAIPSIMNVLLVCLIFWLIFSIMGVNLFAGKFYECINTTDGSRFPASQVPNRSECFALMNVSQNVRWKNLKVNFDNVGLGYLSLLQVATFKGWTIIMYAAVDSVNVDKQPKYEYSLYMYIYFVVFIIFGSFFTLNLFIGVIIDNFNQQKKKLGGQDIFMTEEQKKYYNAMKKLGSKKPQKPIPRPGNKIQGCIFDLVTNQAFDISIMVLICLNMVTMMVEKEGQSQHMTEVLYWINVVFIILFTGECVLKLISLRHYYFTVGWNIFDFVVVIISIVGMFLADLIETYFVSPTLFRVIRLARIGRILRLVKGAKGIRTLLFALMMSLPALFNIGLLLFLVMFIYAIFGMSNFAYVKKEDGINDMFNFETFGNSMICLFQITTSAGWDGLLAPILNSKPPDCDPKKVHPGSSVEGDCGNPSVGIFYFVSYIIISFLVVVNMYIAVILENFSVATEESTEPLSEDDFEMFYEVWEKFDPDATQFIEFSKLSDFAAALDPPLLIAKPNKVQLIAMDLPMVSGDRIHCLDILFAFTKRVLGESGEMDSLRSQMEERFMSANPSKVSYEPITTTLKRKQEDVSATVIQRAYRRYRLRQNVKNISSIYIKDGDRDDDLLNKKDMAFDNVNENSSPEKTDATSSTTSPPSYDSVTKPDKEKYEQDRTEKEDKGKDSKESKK

Molecule	IC50 [1]	IC50
O=C(c1ccc2cc(Oc3ccc(C(F)(F)F)cn3)ccc2n1)N1CCCC(O)CC1 (stereo not drawn) [Example 284, (4-hydroxyazepan-1-yl)(6-{[5-(trifluoromethyl)pyridin-2-yl]oxy}quinolin-2-yl)methanone]	8.59 µM	
CN1CC(NC(=O)c2ccc3cc(Oc4ccc(C(F)(F)F)nc4)ccc3n2)CC1=O (stereo not drawn) [Example 519, N-(1-methyl-5-oxopyrrolidin-3-yl)-6-{[6-(trifluoromethyl)pyridin-3-yl]oxy}quinoline-2-carboxamide]	1.16 µM	
CCOCC1(F)CCN(C(=O)c2ccc3cc(Oc4ccc(C(F)(F)F)cn4)ccc3n2)C1 (stereo not drawn) [Example 488, [3-(ethoxymethyl)-3-fluoropyrrolidin-1-yl](6-{[5-(trifluoromethyl)pyridin-2-yl]oxy}quinolin-2-yl)methanone]		0.526 µM
CS(=O)(=O)NC(=O)c1ccc2cc(Oc3ccc(C#N)cc3)ccc2n1 [Example 115, 6-(4-cyanophenoxy)-N-(methylsulfonyl)quinoline-2-carboxamide]	11.2 µM	
O=C1CC(CNC(=O)c2ccc3cc(Oc4ccc(C(F)(F)F)cn4)ccc3n2)CN1 (stereo not drawn) [Example 609, N-[(5-oxopyrrolidin-3-yl)methyl]-6-{[5-(trifluoromethyl)pyridin-2-yl]oxy}quinoline-2-carboxamide]	4.5 µM	
Cc1ccc(CNC(=O)c2ccc3cc(Oc4ccc(C#N)cc4)ccc3n2)cc1 [Example 103, 6-(4-cyanophenoxy)-N-(4-methylbenzyl)quinoline-2-carboxamide]	> 20 µM	
COCC1(F)CCN(C(=O)c2ccc3cc(Oc4ccc(C(F)(F)F)cn4)ccc3n2)CC1 [Example 618, [4-fluoro-4-(methoxymethyl)piperidin-1-yl](6-{[5-(trifluoromethyl)pyridin-2-yl]oxy}quinolin-2-yl)methanone]		2.69 µM
O=C(c1ccc2cc(Oc3ccc(C(F)(F)F)cn3)ccc2n1)N1CCN(CCC(F)(F)F)CC1 [Example 311, (6-{[5-(trifluoromethyl)pyridin-2-yl]oxy}quinolin-2-yl)[4-(3,3,3-trifluoropropyl)piperazin-1-yl]methanone]		3.11 µM
O=C(NC1CCS(=O)(=O)C1)c1ccc2cc(Oc3ccc(C(F)(F)F)nn3)ccc2n1 (stereo not drawn) [Example 168, N-(1,1-dioxidotetrahydrothiophen-3-yl)-6-{[6-(trifluoromethyl)pyridazin-3-yl]oxy}quinoline-2-carboxamide]	> 20 µM	
N#Cc1cnc(Oc2ccc3nc(C(=O)N4CCNCC4)ccc3c2)cn1 [Example 372, 5-{[2-(piperazin-1-ylcarbonyl)quinolin-6-yl]oxy}pyrazine-2-carbonitrile]	> 20 µM	
O=C(c1ccc2cc(Oc3ccc(S(=O)(=O)C(F)(F)F)cc3)ccc2n1)N1CCNCC1 [Example 215, piperazin-1-yl(6-{4-[(trifluoromethyl)sulfonyl]phenoxy}quinolin-2-yl)methanone]	0.81 µM	
[cis-2,2-dimethyltetrahydro-5H-[1,3]dioxolo[4,5-c]pyrrol-5-yl](6-{[5-(trifluoromethyl)pyridin-2-yl]oxy}quinolin-2-yl)methanone [Example 373]	3.7 µM	
O=C(c1ccc2cc(Oc3ccc(C(F)(F)F)cn3)ccc2n1)N1CC(n2cncn2)C1 [Example 204, [3-(1H-1,2,4-triazol-1-yl)azetidin-1-yl](6-{[5-(trifluoromethyl)pyridin-2-yl]oxy}quinolin-2-yl)methanone]	1.63 µM	
COC1CN(C(=O)CNC(=O)c2ccc3cc(Oc4ccc(C(F)(F)F)cn4)ccc3n2)C1 [Example 569, N-[2-(3-methoxyazetidin-1-yl)-2-oxoethyl]-6-{[5-(trifluoromethyl)pyridin-2-yl]oxy}quinoline-2-carboxamide]	1.21 µM	
O=C(NCCOC(F)(F)F)c1ccc2cc(Oc3ccc(C(F)(F)F)cn3)ccc2n1 [Example 547, N-[2-(trifluoromethoxy)ethyl]-6-{[5-(trifluoromethyl)pyridin-2-yl]oxy}quinoline-2-carboxamide]		3.29 µM
O=C(NCCC(=O)N1CCOCC1)c1ccc2cc(Oc3ccc(C(F)F)cn3)ccc2n1 [Example 459, 6-{[5-(difluoromethyl)pyridin-2-yl]oxy}-N-[3-(morpholin-4-yl)-3-oxopropyl]quinoline-2-carboxamide]	8.69 µM	
O=C1CN(C(=O)c2ccc3cc(Oc4ccc(C(F)(F)F)cn4)ccc3n2)C1 [Example 370, 1-[(6-{[5-(trifluoromethyl)pyridin-2-yl]oxy}quinolin-2-yl)carbonyl]azetidin-3-one]		3.39 µM
CN(C(=O)c1ccc2cc(Oc3ccc(C(F)(F)F)cn3)ccc2n1)C1CCS(=O)(=O)C1 (stereo not drawn) [Example 419, N-(1,1-dioxidotetrahydrothiophen-3-yl)-N-methyl-6-{[5-(trifluoromethyl)pyridin-2-yl]oxy}quinoline-2-carboxamide]	11.9 µM	
O=C(N[C@@H]1CCNC1)c1ccc2cc(Oc3ccc(C(F)(F)F)cn3)ccc2n1 [Example 331, N-[(3R)-pyrrolidin-3-yl]-6-{[5-(trifluoromethyl)pyridin-2-yl]oxy}quinoline-2-carboxamide]		2.64 µM
CC(C)(O)CCNC(=O)c1ccc2cc(Oc3ccc(C(F)(F)F)cn3)ccc2n1 [Example 334, N-(3-hydroxy-3-methylbutyl)-6-{[5-(trifluoromethyl)pyridin-2-yl]oxy}quinoline-2-carboxamide]	3.44 µM	
N#Cc1ccc(Oc2ccc3nc(C(=O)N[C@@H]4CCC[C@@H]4O)ccc3c2)cc1 [Example 131, 6-(4-cyanophenoxy)-N-[(1R,2S)-2-hydroxycyclopentyl]quinoline-2-carboxamide]		1.15 µM
O=C(NCC(=O)N1CCS(=O)(=O)C1)c1ccc2cc(Oc3ccc(C(F)(F)F)cn3)ccc2n1 [Example 568, N-[2-(1,1-dioxido-1,3-thiazolidin-3-yl)-2-oxoethyl]-6-{[5-(trifluoromethyl)pyridin-2-yl]oxy}quinoline-2-carboxamide]	3.26 µM	
O=C(NCCC1CS(=O)(=O)C1)c1ccc2cc(Oc3ccc(C(F)(F)F)cn3)ccc2n1 [Example 615, N-[2-(1,1-dioxidothietan-3-yl)ethyl]-6-{[5-(trifluoromethyl)pyridin-2-yl]oxy}quinoline-2-carboxamide]	2.32 µM	
O=C(NC1(CO)CC1)c1ccc2cc(Oc3ccc(C(F)(F)F)cn3)ccc2n1 [Example 380, N-[1-(hydroxymethyl)cyclopropyl]-6-{[5-(trifluoromethyl)pyridin-2-yl]oxy}quinoline-2-carboxamide]	3 µM	
N#Cc1ccc(Oc2ccc3nc(C(=O)NCc4ccco4)ccc3c2)cc1 [Example 94, 6-(4-cyanophenoxy)-N-(2-furylmethyl)quinoline-2-carboxamide]	5.25 µM	
COCCn1cc(S(=O)(=O)N2CCN(C(=O)c3ccc4cc(Oc5ccc(C(F)(F)F)cn5)ccc4n3)CC2)cn1 [Example 384, (4-{[1-(2-methoxyethyl)-1H-pyrazol-4-yl]sulfonyl}piperazin-1-yl)(6-{[5-(trifluoromethyl)pyridin-2-yl]oxy}quinolin-2-yl)methanone]	1.93 µM	
CC(CO)NC(=O)c1ccc2cc(Oc3ccc(C#N)cc3)ccc2n1 (stereo not drawn) [Example 127, 6-(4-cyanophenoxy)-N-(1-hydroxypropan-2-yl)quinoline-2-carboxamide]		4.07 µM
